{"source": "patent US10791730B2", "about": "“Composition and methods for cryopreservation of hUTC” (DePuy Synthes Products, Inc., priority 2016, dated 2020)", "test_system": "umbilical cord tissue", "assay": "Isolation of cells from umbilical cord tissue using varying enzyme combinations", "assay_type": "cell-based, human", "design": "key: + = good; ++ = very good; +++ = excellent; X = no success", "details": "enzyme digest of umbilical cord tissue", "experimental": "Umbilical cords were obtained from National Disease Research Interchange (NDRI, Philadelphia, Pa.). The tissues were obtained following normal deliveries. The cell isolation protocols were performed aseptically in a laminar flow hood. To remove blood and debris, the cord was washed in phosphate buffered saline (PBS; Invitrogen, Carlsbad, Calif.) in the presence of penicillin at 100 U/ml, streptomycin at […] and amphotericin B at 0.25 μg/ml (Invitrogen Carlsbad, Calif.). The tissues were then mechanically dissociated in 150 cm^2 tissue culture plates in the presence of 50 ml of medium (DMEM-low glucose or DMEM-high glucose; Invitrogen) until the tissue was minced into a fine pulp. The chopped tissues were transferred to 50 ml conical tubes (approximately 5 g of tissue per tube).\nThe tissue was then digested in either DMEM-low glucose medium or DMEM-high glucose medium, each containing penicillin at 100 U/ml, streptomycin at […], amphotericin B at 0.25 μg/ml and the digestion enzymes. In some experiments an enzyme mixture of collagenase and dispase was used (“C:D”) (collagenase (Sigma, St Louis, Mo.), 500 U/ml; and dispase (Invitrogen), 50 U/ml, in DMEM-Low glucose medium). In other experiments a mixture of collagenase, dispase and hyaluronidase (“C:D:H”) was used (C:D:H=collagenase, 500 U/ml; dispase, 50 U/ml; and hyaluronidase (Sigma), 5 U/ml, in DMEM-Low glucose). The conical tubes containing the tissue, medium and digestion enzymes were incubated at 37° C. in an orbital shaker (Environ, Brooklyn, N.Y.) at 225 rpm for 2 hours.\nAfter digestion, the tissues were centrifuged at 150×g for 5 minutes, the supernatant was aspirated. The pellet was resuspended in 20 ml of growth medium (DMEM:Low glucose (Invitrogen), 15% (v/v) fetal bovine serum (FBS; defined fetal bovine serum; Lot #AND18475; Hyclone, Logan, Utah), 0.001% (v/v) 2-mercaptoethanol (Sigma), penicillin at 100 U/ml, streptomycin at 100 μg/ml, and amphotericin B at 0.25 μg/ml (each from Invitrogen, Carlsbad, Calif.)). The cell suspension was filtered through a 70 μm nylon BD FALCON Cell Strainer (BD Biosciences, San Jose, Calif.). An additional 5 ml rinse comprising growth medium was passed through the strainer. The cell suspension was then passed through a 40-μm nylon cell strainer (BD Biosciences, San Jose, Calif.) and chased with a rinse of an additional 5 ml of growth medium.\nThe filtrate was resuspended in growth medium (total volume 50 ml) and centrifuged at 150×g for 5 minutes. The supernatant was aspirated and the cells were resuspended in 50 ml of fresh growth medium. […]\nAfter the final centrifugation, supernatant was aspirated and the cell pellet was resuspended in 5 ml of fresh growth medium. The number of viable cells was determined using trypan blue staining. […]", "data": [{"substance": "Collagenase", "values": [{"measurement": "Cell Expansion", "result": "X"}, {"measurement": "Cells Isolated", "result": "X"}]}, {"substance": "Hyaluronidase", "values": [{"measurement": "Cell Expansion", "result": "X"}, {"measurement": "Cells Isolated", "result": "X"}]}]}
